According to patent US20210379010A1, “COMPOSITIONS COMPRISING CANNABINOIDS FOR USE IN THE TREATMENT OF BIOFILM AND CONDITIONS ASSOCIATED WITH MICROBIAL, FUNGAL, BACTERIAL INFECTIONS” (Yissum Research Development Company of The Hebrew …, priority 2018, published 2021):
≈ marks a conversion by molar mass, not a printed value. Where “and” joins values, the source holds several entries; their conditions need not be identical. Identical values can stand only once.

Legend:
S.aureus MRSA 43300 = test: Growth of MRSA 43300, cannabinoid alone and combined with antibiotic (MIC/FIC/FICI); type: cell-based; conditions: MRSA 43300 growth; for MIC AEA: AEA alone; for MIC ARAS: ARAS alone
[1] = system: S.aureus MRSA 33592 biofilm; test: Biofilm formation of MRSA 33592, cannabinoid alone and combined with antibiotic (MBIC/FBIC/FBICI); type: cell-based; conditions: for MBIC AEA: AEA alone; for MBIC ARAS: ARAS alone
[2] = system: V. harveyi quorum sensing; test: Quorum sensing assay, relative bioluminescence of V. harveyi mutant strains; type: cell-based; conditions: sub-MIC concentrations, dose response up to 100 μg/ml
Source text: FIG. 6 Relative Bioluminescence Unit (LUM/(O.D(595 nm))) (RLU) of different mutant strains of bacteria V. harveyi when exposed to different sub-MIC concentrations of AEA.

[3] = system: S.aureus MRSA 43300 biofilm; test: Biofilm formation of MRSA 43300, cannabinoid alone and combined with antibiotic (MBIC/FBIC/FBICI); type: cell-based; conditions: for MBIC AEA: AEA alone; for MBIC ARAS: ARAS alone
[4] = system: S. aureus MRSA 24433 biofilm; test: Biofilm formation of MRSA 24433, cannabinoid alone and combined with antibiotic (MBIC/FBIC/FBICI); type: cell-based; conditions: for MBIC AEA: AEA alone; for FBIC AEA: MBIC of AEA in combination with methicillin
MRSA strain 43300 = test: Colony spreading on soft agar, MRSA 43300
Experimental: (§1) The swimming assay was performed on soft agar plates. 0.2% agar medium was prepared and autoclaved. The bacteria were exposed to the tested agents. 3 μl of overnight bacterial culture (O.D 595˜0.5) was inoculated at the centre of the agar plate. […] The plates were then incubated for 15 h.

C. albicans biofilm [5] = test: MTT assay of C. albicans biofilm; type: cell-based
Experimental: To investigate the effect of the agents on preformed biofilms, biofilms were allowed to mature in for 24 h at 37° C. in a 6-well plate. The biofilms were washed twice with PBS. The active agents were then applied. The plates were further incubated for 24 h at 37° C. The amounts of biofilms, were determined quantitatively using a standard MTT reduction assay as described previously. Briefly, biofilms were overlaid with […] of 3-(4,5-dimethyl-2-thiazolyl)-2,5-diphenyl-2H-tetrazolium bromide (MTT) and incubated for 2 h at 37° C. Under these conditions, the lightly yellowish MTT was reduced to a blue tetrazolium salt accumulated within the metabolic active biofilms. The stain was then dissolved in DMSO and the absorbance value was measured at 570 nm. The accumulation of tetrazolium salt by the reduction of MTT is proportional to the number of viable cells growing in biofilm. Prior to dissolving in DMSO, biofilms were photographed and visualized. Assay was performed in triplicate.

S. mutans biofilm [6] = test: CLSM live/dead staining of S. mutans biofilm
Experimental: The bacterial viability and vitality of was analyzed by CLSM (Olympus Fluoview 300, Olympus, Japan) with a UPLSA 10×/0.4 lenses. The biofilm samples were grown overnight on 96 well. The biofilm was washed carefully using 200 μl PBS solution after overnight incubation, and then stained with 50 μl of LIVE/DEAD BacLight fluorescent dye (Invitrogen Life Technologies, Carlsbad, Calif., USA) (1:100) for 20 min in the dark, at room temperature. This staining allowed to distinguish the live organisms from the dead ones. […] The biofilm thickness was examined by generating the optical sections that were acquired at spacing steps of 10 μm Image J program (The National Institute of Health) was used for fluorescence analysis which calculates the fluorescence intensity per area for each color separately.

MRSA strain CI = test: Colony spreading on soft agar, MRSA CI
Experimental: as §1

P. aeruginosa biofilm = test: CLSM of treated P. aeruginosa biofilm
MRSA strain 33592 = test: Colony spreading on soft agar, MRSA 33592
Experimental: as §1

S.aureus MRSA 33592 = test: Growth of MRSA 33592, cannabinoid alone and combined with antibiotic (MIC/FIC/FICI); type: cell-based; conditions: MRSA 33592 growth; for MIC AEA: AEA alone, in µg/mL; for MIC ARAS: ARAS alone
S. mutans biofilm [7] = test: S. mutans biofilm formation inhibition; type: cell-based
S. aureus MRSA 24433 = test: Growth of MRSA 24433, cannabinoid alone and combined with antibiotic (MIC/FIC/FICI); type: cell-based; conditions: MRSA 24433 growth; for MIC AEA: AEA alone; for FIC AEA: MIC of AEA in combination with methicillin
[8] = system: fluconazole resistant C. albicans strain DSY735 biofilm; conditions: Table 2
S. mutans = S. mutans growth (MIC); type: cell-based; conditions: Streptococcus mutans; single S. mutans growth; read-out: MIC
[9] = system: fluconazole resistant C. albicans strains; type: cell-based; conditions: each agent alone or in combination; data not shown
[10] = system: mixed S. mutans-C. albicans; test: Growth of C. albicans-S. mutans co-culture; type: cell-based; conditions: mixed S. mutans-C. albicans growth
[11] = system: mixed C. albicans-S. mutans biofilm; test: Co-species C. albicans-S. mutans biofilm formation inhibition; type: cell-based
[12] = system: fluconazole resistant C. albicans strain DSY551 biofilm; conditions: Table 2
C. albicans = C. albicans growth (MIC); type: cell-based; conditions: Candida albicans; single C. albicans growth; highest tested dose 64 μg/ml; read-out: MIC, fungal growth
C. albicans biofilm [13] = test: C. albicans biofilm formation inhibition; type: cell-based; conditions: single C. albicans biofilm formation
[14] = MBIC of ARAS in combination with fluconazole

Compound: CCCCC/C=C\C/C=C\C/C=C\C/C=C\CCCC(=O)NCCO [AEA, arachidonoyl ethanolamide]
- MIC AEA (S.aureus MRSA 43300; Table 6C): > 256 mg/L
- MIC AEA (S.aureus MRSA 43300; Table 8B): > 256 mg/L
- FIC AEA (S.aureus MRSA 43300; MIC of AEA in combination with ampicillin, Table 8B): 16
- FIC AEA (S.aureus MRSA 43300; MIC of AEA in combination with methicillin, Table 6C): 16
- MBIC AEA ([1]; Table 6A): 64
- MBIC AEA ([1]; Table 7): 64
- MBIC AEA ([1]; Table 8A): 64
- FBIC AEA ([1]; MBIC of AEA in combination with ampicillin, Table 8A): 8
- FBIC AEA ([1]; MBIC of AEA in combination with gentamicin, Table 7): 8
- FBIC AEA ([1]; MBIC of AEA in combination with methicillin, Table 6A): 8
- quorum sensing (relative bioluminescence, AUC vs control) [2]: inhibition
- MBIC AEA ([3]; Table 6C): >256
- MBIC AEA ([3]; Table 8B): >256
- FBIC AEA ([3]; MBIC of AEA in combination with ampicillin, Table 8B): 16
- FBIC AEA ([3]; MBIC of AEA in combination with methicillin, Table 6C): 32
- MBIC AEA ([4]; Table 1): 32 µg/mL
- MBIC AEA ([4]; Table 6B): 32
- FBIC AEA ([4]; Table 1): 8 µg/mL
- FBIC AEA ([4]; Table 6B): 8
- reduction of colony diameter (spreading) vs untreated control (MRSA strain 43300; AEA 64 μg/ml): 73% and 73 ± 2.6%
- C. albicans biofilm formation (MTT assay) (C. albicans biofilm [5]): dose-dependent inhibition
- S. mutans biofilm formation (CLSM) (S. mutans biofilm [6]): dose-dependent inhibition
- reduction of colony diameter (spreading) vs untreated control (MRSA strain CI; AEA 64 μg/ml): 88% and 88 ± 1.9%
- layers/depth of P. aeruginosa biofilm (P. aeruginosa biofilm): reduced layers/depth of biofilm
- P. aeruginosa biofilm density (P. aeruginosa biofilm; compared with PEA): more significant reduction in biofilm density
- reduction of colony diameter (spreading) vs untreated control (MRSA strain 33592; AEA 64 μg/ml): 84% and 84 ± 1.8%
- MIC AEA (S.aureus MRSA 33592; Table 6A): >256
- MIC AEA (S.aureus MRSA 33592; Table 7): >256
- MIC AEA (S.aureus MRSA 33592; Table 8A): >256
- decrease of MIC in combination (S.aureus MRSA 33592; AEA with gentamicin vs agent alone): more than 32 fold
- FIC AEA (S.aureus MRSA 33592; MIC of AEA in combination with ampicillin, Table 8A): 8
- FIC AEA (S.aureus MRSA 33592; MIC of AEA in combination with gentamicin, Table 7): 8
- FIC AEA (S.aureus MRSA 33592; MIC of AEA in combination with methicillin, Table 6A): 16
- inhibition of S. mutans biofilm formation (S. mutans biofilm [7]; highest tested dose of 64 μg/ml): 45%
- MIC AEA (S. aureus MRSA 24433; Table 1): >64 mg/L
- MIC AEA (S. aureus MRSA 24433; Table 6B): > 256 mg/L
- FIC AEA (S. aureus MRSA 24433; Table 1): 16 µg/mL
- FIC AEA (S. aureus MRSA 24433; Table 6B): 16

Compound: CCCCC/C=C\C/C=C\C/C=C\C/C=C\CCCC(=O)N[C@@H](CO)C(=O)O [ARAS, arachidonoyl serine]
- MBIC ARAS ([8]; ARAS alone): 64 µg/mL
- FBIC ARAS [8, 14]: 32 µg/mL
- MIC ARAS (S.aureus MRSA 43300; Table 3C): 64 mg/L
- MIC ARAS (S.aureus MRSA 43300; Table 5B): 64 mg/L
- FIC ARAS (S.aureus MRSA 43300; MIC of ARAS in combination with ampicillin, Table 5B): 16
- FIC ARAS (S.aureus MRSA 43300; MIC of ARAS in combination with methicillin, Table 3C): 16
- MIC (S. mutans): 64 mg/L (≈ 163 µM)
- MBIC ARAS ([1]; Table 3A): 32
- MBIC ARAS ([1]; Table 4): 32
- MBIC ARAS ([1]; Table 5A): 32
- FBIC ARAS ([1]; MBIC of ARAS in combination with ampicillin, Table 5A): 16
- FBIC ARAS ([1]; MBIC of ARAS in combination with gentamycin, Table 4): 4
- FBIC ARAS ([1]; MBIC of ARAS in combination with methicillin, Table 3A): 16
- growth of fluconazole resistant fungal strains [9]: not affected
- MIC [10]: > 64 mg/L
- MBIC ARAS ([3]; Table 3C): 32
- MBIC ARAS ([3]; Table 5B): 32
- FBIC ARAS ([3]; MBIC of ARAS in combination with ampicillin, Table 5B): 8
- FBIC ARAS ([3]; MBIC of ARAS in combination with methicillin, Table 3C): 8
- MBIC ARAS ([4]; ARAS alone, Table 3B): 32
- FBIC ARAS ([4]; MBIC of ARAS in combination with methicillin, Table 3B): 16
- MBIC50 [11]: 32 µg/mL
- inhibition of colony spreading vs untreated control (MRSA strain 43300; ARAS 32 μg/ml (sub-MIC)): 46% and 46 ± 2.8%
- MBIC ARAS ([12]; ARAS alone): 64 µg/mL
- FBIC ARAS [12, 14]: 32 µg/mL
- inhibition of colony spreading vs untreated control (MRSA strain CI; ARAS 64 μg/ml (sub-MIC)): 64% and 64 ± 2.5%
- MIC (C. albicans): > 64 mg/L
- inhibition of colony spreading vs untreated control (MRSA strain 33592; ARAS 16 μg/ml (sub-MIC)): 65% and 65 ± 3.4%
- MBIC50 (minimal biofilm inhibitory concentration 50, 50% of biofilm inhibition) (C. albicans biofilm [13]): 16 µg/mL
- MIC ARAS (S.aureus MRSA 33592; Table 3A): 64 mg/L
- MIC ARAS (S.aureus MRSA 33592; Table 4): 32 mg/L
- MIC ARAS (S.aureus MRSA 33592; Table 5A): 32 mg/L
- FIC ARAS (S.aureus MRSA 33592; MIC of ARAS in combination with ampicillin, Table 5A): 8
- FIC ARAS (S.aureus MRSA 33592; MIC of ARAS in combination with gentamycin, Table 4): 4
- FIC ARAS (S.aureus MRSA 33592; MIC of ARAS in combination with methicillin, Table 3A): 16
- inhibition at 8 µg/mL (S. mutans biofilm [7]; Streptococcus mutans, 8 μg/ml, read-out: inhibition of single S. mutans biofilm formation): > 50%
- MIC ARAS (S. aureus MRSA 24433; ARAS alone, Table 3B): > 256 mg/L
- FIC ARAS (S. aureus MRSA 24433; MIC of ARAS in combination with methicillin, Table 3B): >64
